Source: PubChem BioAssay AID248 (DTP/NCI, 2004)
“And” between values parts separate entries of the source, which are not always exact repeats. Identical values can stand only once. Toxic doses and inconclusive results are not listed. Peptide text beside a SMILES is read from it. * marks the point of attachment. For = O=C*

Tested on: L1210 leukemia ip in BDF1 mice, survival T/C
Test: NCI In Vivo Anticancer Drug Screen. Data for tumor model L1210 Leukemia (intraperitoneal) in B6D2F1 (BDF1) mice
Conditions: endpoint: mean survival time, higher = longer survival
How it was run: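 Tumor was transplanted into mice, which were then dosed with test compound or vehicle alone. Survival was recorded for each group, and the treated figure was expressed relative to the control figure.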

[1] = dose: 100.0 mg/kg/injection, schedule: Q01DX001 (ip), vehicle: saline
[2] = dose: 200.0 mg/kg/injection, schedule: Q01DX001 (ip), vehicle: saline
[3] = dose: 400.0 mg/kg/injection, schedule: Q01DX001 (ip), vehicle: saline
[4] = dose: 50.0 mg/kg/injection, schedule: Q01DX001 (ip), vehicle: saline
[5] = dose: 100.0 mg/kg/injection, schedule: Q04DX003 (ip), vehicle: Klucel (hydroxypropylcellulose) (HPC)
[6] = dose: 200.0 mg/kg/injection, schedule: Q04DX003 (ip), vehicle: Klucel (hydroxypropylcellulose) (HPC)

## COC(=O)C(CC(C)C)NC(=O)C(Cc1ccc(O)cc1)NC=O (stereo not drawn) (For-Tyr-Leu-OMe; configuration not given here)
dose: 100.0 mg/kg/injection, schedule: Q01DX009 (ip), vehicle: saline with Tween-80
  T/C: 94 % of control
dose: 100.0 mg/kg/injection, schedule: Q04DX003 (ip), vehicle: saline with Tween-80
  T/C: 110 % of control
dose: 200.0 mg/kg/injection, schedule: Q01DX009 (ip), vehicle: saline with Tween-80
  T/C: 95 % of control
dose: 200.0 mg/kg/injection, schedule: Q04DX003 (ip), vehicle: saline with Tween-80
  T/C: 102 % of control
dose: 400.0 mg/kg/injection, schedule: Q01DX009 (ip), vehicle: saline with Tween-80
  T/C: 92 % of control
dose: 400.0 mg/kg/injection, schedule: Q04DX003 (ip), vehicle: saline with Tween-80
  T/C: 96 % of control

## O=c1c2c(c(=O)c(=O)c1=O)Nc1ccccc1N2
[1]
  T/C: 98 % of control
[2]
  T/C: 104 % of control
[3]
  T/C: 98 % of control

## OCc1ccccc1O
dose: 50.0 mg/kg/injection, schedule: Q01DX009 (ip), vehicle: Klucel (hydroxypropylcellulose) (HPC)
  T/C: 105 % of control
dose: 100.0 mg/kg/injection, schedule: Q01DX001 (ip), vehicle: Klucel (hydroxypropylcellulose) (HPC)
  T/C: 100 % of control
dose: 100.0 mg/kg/injection, schedule: Q01DX009 (ip), vehicle: Klucel (hydroxypropylcellulose) (HPC)
  T/C: 102 % of control
dose: 200.0 mg/kg/injection, schedule: Q01DX001 (ip), vehicle: Klucel (hydroxypropylcellulose) (HPC)
  T/C: 100 % of control
dose: 200.0 mg/kg/injection, schedule: Q01DX009 (ip), vehicle: Klucel (hydroxypropylcellulose) (HPC)
  T/C: 102 % of control
dose: 400.0 mg/kg/injection, schedule: Q01DX001 (ip), vehicle: Klucel (hydroxypropylcellulose) (HPC)
  T/C: 106 % of control

## CC1(C)N=C(N)N=C(N)N1c1cccc(C(=O)O)c1
dose: 25.0 mg/kg/injection, schedule: Q01DX001 (ip), vehicle: saline
  T/C: 100 % of control
[4]
  T/C: 102 % of control
[1]
  T/C: 105 % of control

## C[n+]1cc(N)cc2ccccc21
dose: 10.0 mg/kg/injection, schedule: Q01DX001 (ip), vehicle: other
  T/C: 105 % of control
dose: 20.0 mg/kg/injection, schedule: Q01DX001 (ip), vehicle: other
  T/C: 105 % of control
dose: 40.0 mg/kg/injection, schedule: Q01DX001 (ip), vehicle: other
  T/C: 109 % of control

## O=C1NC(=O)C(c2ccccc2)(C2CC2)N1 (configuration not stated)
dose: 50.0 mg/kg/injection, schedule: Q04DX003 (ip), vehicle: Klucel (hydroxypropylcellulose) (HPC)
  T/C: 107 % of control
[1]
  T/C: 93 % of control
[5]
  T/C: 95 % of control
[2]
  T/C: 93 % of control
[6]
  T/C: 101 % of control
[3]
  T/C: 98 % of control

## Nc1ncnc2nc(N=Nc3ccc(C(=O)O)c(O)c3)[nH]c12
[5]
  T/C: 96 % of control
[6]
  T/C: 105 % of control
dose: 400.0 mg/kg/injection, schedule: Q04DX003 (ip), vehicle: Klucel (hydroxypropylcellulose) (HPC)
  T/C: 102 % of control

## CC12CCC3c4ccc(Cc5ccc([N+](=O)[O-])cc5)cc4CCC3C1CCC2=O (configuration not stated)
[4]
  T/C: 105 % of control
[1]
  T/C: 100 % of control
[2]
  T/C: 100 % of control
[3]
  T/C: 105 % of control

## C#CCSC(=S)OCC
dose: 100.0 mg/kg/injection, schedule: Q04DX003 (ip), vehicle: other
  T/C: 95 % of control
dose: 200.0 mg/kg/injection, schedule: Q04DX003 (ip), vehicle: other
  T/C: 101 % of control

## Nc1ncnc2c1ncn2C(C=O)OC(C=O)CO (configuration not stated)
dose: 4.37 mg/kg/injection, schedule: Q01DX009 (ip), vehicle: water
  T/C: 123 % of control
dose: 4.37 mg/kg/injection, schedule: Q01DX Z (ip), vehicle: water
  T/C: 123 % of control
dose: 8.75 mg/kg/injection, schedule: Q01DX Z (ip), vehicle: water
  T/C: 157 % of control
dose: 8.8 mg/kg/injection, schedule: Q01DX Z (ip), vehicle: carboxymethylcellulose (CMC)
  T/C: 115 % of control
dose: 13.3 mg/kg/injection, schedule: Q01DX Z (ip), vehicle: carboxymethylcellulose (CMC)
  T/C: 121 % of control
dose: 17.5 mg/kg/injection, schedule: Q01DX009 (ip), vehicle: water
  T/C: 172 % of control
dose: 17.5 mg/kg/injection, schedule: Q01DX Z (ip), vehicle: water
  T/C: 172 % of control
dose: 30.0 mg/kg/injection, schedule: Q01DX Z (ip), vehicle: carboxymethylcellulose (CMC)
  T/C: 116 % of control
dose: 35.0 mg/kg/injection, schedule: Q01DX Z (ip), vehicle: water
  T/C: 92 % of control
dose: 42.0 mg/kg/injection, schedule: Q01DX Z (oral), vehicle: carboxymethylcellulose (CMC)
  T/C: 115 % of control
dose: 45.0 mg/kg/injection, schedule: Q01DX Z (ip), vehicle: carboxymethylcellulose (CMC)
  T/C: 100 % of control and 101 % of control
dose: 64.0 mg/kg/injection, schedule: Q01DX Z (oral), vehicle: carboxymethylcellulose (CMC)
  T/C: 107 % of control
dose: 68.0 mg/kg/injection, schedule: Q01DX Z (ip), vehicle: carboxymethylcellulose (CMC)
  T/C: 105 % of control and 121 % of control
dose: 79.0 mg/kg/injection, schedule: Q01DX009 (oral), vehicle: saline
  T/C: 109 % of control
dose: 96.0 mg/kg/injection, schedule: Q01DX Z (oral), vehicle: carboxymethylcellulose (CMC)
  T/C: 109 % of control
dose: 119.0 mg/kg/injection, schedule: Q01DX009 (oral), vehicle: saline
  T/C: 109 % of control
dose: 144.0 mg/kg/injection, schedule: Q01DX Z (oral), vehicle: carboxymethylcellulose (CMC)
  T/C: 96 % of control
dose: 178.0 mg/kg/injection, schedule: Q01DX009 (oral), vehicle: saline
  T/C: 112 % of control

## O=C1C=C(Nc2ccc(S(=O)(=O)c3ccc(NC4=CC(=O)C(=O)c5ccccc54)cc3)cc2)c2ccccc2C1=O
dose: 75.0 mg/kg/injection, schedule: Q01DX001 (ip), vehicle: saline
  T/C: 93 % of control
dose: 150.0 mg/kg/injection, schedule: Q01DX001 (ip), vehicle: saline
  T/C: 96 % of control
dose: 300.0 mg/kg/injection, schedule: Q01DX001 (ip), vehicle: saline
  T/C: 96 % of control

## O=c1[nH]c2c(Cl)cc(Cl)cc2c2ccccc12
dose: 100.0 mg/kg/injection, schedule: Q01DX001 (ip), vehicle: carboxymethylcellulose (CMC)
  T/C: 87 % of control
dose: 200.0 mg/kg/injection, schedule: Q01DX001 (ip), vehicle: carboxymethylcellulose (CMC)
  T/C: 92 % of control
dose: 400.0 mg/kg/injection, schedule: Q01DX001 (ip), vehicle: carboxymethylcellulose (CMC)
  T/C: 100 % of control

## COC(=O)c1ccccc1-c1ccccc1C(=O)O
dose: 44.0 mg/kg/injection, schedule: Q01DX001 (ip), vehicle: other
  T/C: 101 % of control
dose: 66.0 mg/kg/injection, schedule: Q01DX001 (ip), vehicle: other
  T/C: 106 % of control
dose: 100.0 mg/kg/injection, schedule: Q01DX001 (ip), vehicle: other
  T/C: 93 % of control
dose: 150.0 mg/kg/injection, schedule: Q01DX001 (ip), vehicle: other
  T/C: 95 % of control
dose: 200.0 mg/kg/injection, schedule: Q01DX001 (ip), vehicle: other
  T/C: 98 % of control
dose: 400.0 mg/kg/injection, schedule: Q01DX001 (ip), vehicle: other
  T/C: 98 % of control

## NC(=O)CC(NC(=O)C(F)(F)F)C(=O)O (configuration not stated)
dose: 100.0 mg/kg/injection, schedule: Q04DX003 (ip), vehicle: carboxymethylcellulose (CMC)
  T/C: 98 % of control
dose: 200.0 mg/kg/injection, schedule: Q04DX003 (ip), vehicle: carboxymethylcellulose (CMC)
  T/C: 98 % of control
dose: 400.0 mg/kg/injection, schedule: Q04DX003 (ip), vehicle: carboxymethylcellulose (CMC)
  T/C: 88 % of control

## COc1ccc2c3c([nH]c2c1)C(C)=NCC3
dose: 25.0 mg/kg/injection, schedule: Q04DX002 (ip), vehicle: Klucel (hydroxypropylcellulose) (HPC)
  T/C: 93 % of control
dose: 50.0 mg/kg/injection, schedule: Q04DX002 (ip), vehicle: Klucel (hydroxypropylcellulose) (HPC)
  T/C: 101 % of control
dose: 100.0 mg/kg/injection, schedule: Q04DX002 (ip), vehicle: Klucel (hydroxypropylcellulose) (HPC)
  T/C: 93 % of control and 89 % of control
